Laboratory results reported in patent US20240197700A1, “Methods and Compositions for Treating Lysosomal Storage Disorders” (Sanford Health, priority 2021, published 2024).
“Also recorded” adds a separate entry of the source.

Legend:
Format in all cases: in vivo, mouse
Cln3^Δex7/8 mice = assay: SubC burden (immunohistochemistry) in brain of Cln3^Δex7/8 mice
Experimental: (§1) Specific experimental details are included in figure legends. In general, after collection and preparation, MEFs and PNCs were dosed with vehicle or AF38469 (40 nM, 400 nM. or 4 μM) on DIV3 and DIV5. On DIV7, cells were treated with the following dyes: Hoechst 33342 (1:1000 dilution), LysoTrackerT™ Red DND-99 (1:10,000 dilution), fixed, and imaged. Mice were given vehicle or AF38469 (78.125 μg/ml, 3.125 μg/ml, 0.3125 μg/ml or 0.03125 μg/ml equating approximately to 250 μg/mouse/day, 10 μg/mouse/day, 1 μg/mouse/day, and […], respectively, given a mouse's daily water intake of approximately 3.2 ml per day) in drinking water beginning at wean. Body weight was measured bi-weekly, and a force actimeter test was performed on Cln2^R207X mice at 10 weeks of age. Body weight was measured every month for Cln3^Δex7/8 mice. At 11 and 16 weeks of age, respectively, Cln2^R207X and Cln3^Δex7/8 mice along with age matched wild type control mice were CO2 euthanized and intracardially perfused with PBS. Brains were collected and placed on a 1 mm sagittal brain block. Brains were sliced at the midline and 3 mm right of the midline. One hemisphere was fixed in 4% PFA and sectioned at 50 microns on a vibratome. Immunohistochemistry was performed on free-floating sections. For mitochondrial ATP synthase subunit C (SubC), glial fibrillary acidic protein (GFAP), and cluster of differentiation 68 (CD68) immunolabeling, primary antibodies included anti-SubC (Abcam, ab181243; 1:1000), anti-GFAP (Dako, Z0334; 1:5000), anti-CD68 (AbD Serotec, MCA1957; 1:2000), and secondary antibodies included anti-rabbit biotinylated (Vector Labs, BA-1000 1:1000) and anti-rat (Vector Labs, BA-9400 1:1000). Coverslips were mounted on slides using antifade-mounting media and were stored in the dark before imaging. Sections were imaged and analyzed using an Aperio Digital Pathology Slide Scanner (AT2) and associated software. Images were extracted from S1BF of the somatosensory cortex and the VPM/VPL of the thalamus, with multiple images taken of multiple tissues from each animal.
Short-term chronic treatment with AF38469 reduces storage material burden in Cln2^R207X and Cln3^Δex7/8 mice. Beginning at wean, wild type and Cln2^R207X mice were treated with vehicle (0.2408% DMSO) or AF38469 (0.03125 μg/ml, 0.3125 μg/ml, 3.125 μg/ml, 78.125 μg/ml) continuously through the drinking water continuing until sacrifice at 11 weeks. Beginning at wean, wild type and Cln3^Δex7/8 mice were treated with vehicle (0.2408% DMSO) or AF38469 (0.03125 μg/ml, 0.3125 μg/ml, 3.125 μg/ml, 78.125 μg/ml) continuously through the drinking water until sacrifice at 16 weeks. Upon sacrifice, one hemisphere of brain was sectioned at 50 microns on a vibratome; DAB staining immunohistochemistry was then performed using anti-SubC (Abcam, ab181243) anti-rabbit biotinylated (Vector Labs, BA-1000). Sections were imaged and analyzed using an Aperio Digital Pathology Slide Scanner (AT2) and associated software. Images were extracted from S1BF of the somatosensory cortex and the VPM/VPL of the thalamus, key brain regions for Batten disease pathology. Percent area of immunoreactivity were quantified using a threshold analysis in ImageJ™. Statistical analyses were performed using GraphPad Prism™ (v8.4.3; San Diego, CA). […] Increasing concentrations of AF38469 and corresponding genotypes are shown along the x-axis. Nested one-way ANOVA. […]

Cln2^R207X mice [1] = assay: Microglial activation (CD68) in brain of Cln2^R207X mice
Experimental: as §1
Short-term chronic treatment with AF38469 impacts glial activation in Cln2^R207X mice. Beginning at wean, wild type and Cln2^R207X mice were treated with vehicle (0.2408% DMSO) or AF38469 (0.03125 μg/ml, 0.3125 μg/ml, 3.125 μg/ml, 78.125 μg/ml) continuously through the drinking water continuing until sacrifice at 11 weeks. […] Sections were imaged and analyzed using an Aperio Digital Pathology Slide Scanner (AT2) and associated software. […] Percent area of immunoreactivity were quantified using a threshold analysis in ImageJ™. […]

Cln2^R207X mice [2] = assay: Astroglial activation (GFAP) in brain of Cln2^R207X mice
Experimental: as §1
Short-term chronic treatment with AF38469 impacts glial activation in Cln2^R207X mice. Beginning at wean, wild type and Cln2^R207X mice were treated with vehicle (0.2408% DMSO) or AF38469 (0.03125 μg/ml, 0.3125 μg/ml, 3.125 μg/ml, 78.125 μg/ml) continuously through the drinking water continuing until sacrifice at 11 weeks. Upon sacrifice, one hemisphere of brain was sectioned at 50 microns on a vibratome; DAB staining immunohistochemistry was then performed using anti-GFAP (Dako, Z0334; 1:5000), anti-CD68 (AbD Serotec, MCA1957; 1:2000), anti-rabbit biotinylated (Vector Labs, BA-1000 1:1000), and anti-rat (Vector Labs, BA-9400 1:1000). Sections were imaged and analyzed using an Aperio Digital Pathology Slide Scanner (AT2) and associated software. Images were extracted from S1BF of the somatosensory cortex and the VPM/VPL of the thalamus. Percent area of immunoreactivity were quantified using a threshold analysis in ImageJ™. Statistical analyses were performed using GraphPad Prism™ (v8.4.3; San Diego, CA). […] Increasing concentrations of AF38469 and corresponding genotypes are shown along the x-axis. Nested one-way ANOVA. Mean±S.E.M. Dunnett's multiple comparisons test compared to the mutant vehicle treated group. *p<0.05, **p<0.01, ***p<0.001, ****p<0.0001. Reactive gliosis including activated microglia and reactive astrocytes is one of the histopathologies associated with neurodegenerative diseases such as NCLs.

[3] = higher doses, summary statement

## Cc1cccc(NC(=O)c2ccc(C(F)(F)F)cc2C(=O)O)n1 [AF38469, 2-((6-methylpyridin-2-yl)carbamoyl)-5-(trifluoromethyl)benzoic acid]
Cln3^Δex7/8 mice; 0.03125 μg/ml, 0.3125 μg/ml in drinking water, somatosensory cortex and VPM/VPL of the thalamus, 16 weeks
  Subunit C burden: significantly decreased
Cln3^Δex7/8 mice; 3.125 μg/ml in drinking water, somatosensory cortex and VPM/VPL of the thalamus, 16 weeks
  Subunit C burden: significantly decreased
Cln3^Δex7/8 mice; 3.125 μg/ml, 78.125 μg/ml in drinking water, somatosensory cortex, 16 weeks
  Subunit C burden: significantly decreased
Cln2^R207X mice [1]; 3.125 μg/ml, 78.125 μg/ml, somatosensory cortex
  microglial activation (CD68): did not significantly impact
Cln2^R207X mice [1]; 78.125 μg/ml, VPM/VPL of the thalamus
  microglial activation (CD68): significantly increased
Cln2^R207X mice [1]; [3]
  CD68 reactivity: increased or had no impact
Cln2^R207X mice [1]; lower doses 0.03125 μg/ml, 0.3125 μg/ml, somatosensory cortex
  microglial activation (CD68): significantly and potently decreased
Cln2^R207X mice [2]; 3.125 μg/ml, 78.125 μg/ml, VPM/VPL of the thalamus
  astroglial activation (GFAP): did not impact
Cln2^R207X mice [2]; 3.125 μg/ml, somatosensory cortex
  astroglial activation (GFAP): significantly increased
Cln2^R207X mice [2]; 78.125 μg/ml, somatosensory cortex
  astroglial activation (GFAP): had no impact
Cln2^R207X mice [2]; [3]
  GFAP reactivity: increased or had no impact
Cln2^R207X mice [2]; lower doses 0.03125 μg/ml, 0.3125 μg/ml
  astroglial activation (GFAP): had no significant impact; also recorded: did not significantly impact

## CC[C@H](C)[C@H](N)C(=O)NCCN1CCOCC1 [LM11A-31, N-[2-(morpholin-4-yl)ethyl]-L-isoleucinamide]
Cln3^Δex7/8 mice; LM11A-31 0.6 mg/mL, VPM/VPL of the thalamus
  SubC burden: decrease; also recorded: decreasing trend
Cln3^Δex7/8 mice; LM11A-31 0.6 mg/mL, somatosensory cortex (S1BF)
  Subunit C burden: increase; also recorded: did not significantly decreased
